We go through four compounds from US20130156762A1, “Mechanically-Activated Cation Channels” (The Scripps Research Institute, priority 2010, published 2013).

In one assay the test system is N2A cells. The assay is described as follows: Whole-cell mechanical stimulation (piezo-driven glass probe), MA currents in N2A cells. The assay is classed as cell-based, mouse. As to the method: Cell culture and transient transfection. Neuro2A cells were grown in Eagle's Minimum Essential Medium containing 4.5 mg.ml^−1 glucose, 10% fetal bovine serum, 50 units.ml^−1 penicillin and 50 μg.ml^−1 streptomycin. C2C12 or Human Embryonic Kidney 293T (HEK293T) cells were grown in Dulbecco's Modified Eagle Medium containing 4.5 mg.ml^−1 glucose, 10% fetal bovine serum, 50 units.ml^−1 penicillin and 50 μg.ml^−1 streptomycin. Cells were plated onto 35 mm dishes or 12-mm round glass coverslips placed in 24-well plates and transfected using lipofectamine 2000 (Invitrogen) according to the manufacturer's instructions. For Piezo1 overexpression experiment, 500 to 1000 ng.ml^−1 of Piezo1-IRES-GFP or vector only were transfected, and cells were recorded 12-48 hours later. For Piezo2 overexpression experiments, 600 to 1000 ng.ml^−1 of mPiezo2 or vector were co-transfected with 300 ng.ml^−1 GFP to identify transfected cells and cells were recorded 12-48 hours later. […]
(§1) Patch-clamp experiments were performed in standard whole-cell or cell attached recordings using an Axopatch 200B amplifier (Axon Instruments). […] Voltages were not corrected for a liquid junction potential excepted for ion selectivity experiments were LJP were calculated using Clampex 10.1 software (Axon Instruments). […]

Another assay deals with C2C12 cells. The assay is described as follows: Whole-cell mechanical stimulation, MA currents in C2C12 cells. The assay is classed as cell-based, mouse. Particulars: NMDG-chloride external solution, data not shown. As to the method:
Cell culture and transient transfection. Neuro2A cells were grown in Eagle's Minimum Essential Medium containing 4.5 mg.ml^−1 glucose, 10% fetal bovine serum, 50 units.ml^−1 penicillin and 50 μg.ml^−1 streptomycin. C2C12 or Human Embryonic Kidney 293T (HEK293T) cells were grown in Dulbecco's Modified Eagle Medium containing 4.5 mg.ml^−1 glucose, 10% fetal bovine serum, 50 units.ml^−1 penicillin and 50 μg.ml^−1 streptomycin. Cells were plated onto 35 mm dishes or 12-mm round glass coverslips placed in 24-well plates and transfected using lipofectamine 2000 (Invitrogen) according to the manufacturer's instructions. For Piezo1 overexpression experiment, 500 to 1000 ng.ml^−1 of Piezo1-IRES-GFP or vector only were transfected, and cells were recorded 12-48 hours later. For Piezo2 overexpression experiments, 600 to 1000 ng.ml^−1 of mPiezo2 or vector were co-transfected with 300 ng.ml^−1 GFP to identify transfected cells and cells were recorded 12-48 hours later.
as §1

The next assay addresses T1, Piezo1 (Mus musculus, UniProt E2JF22).
T1 construct: expressed in transfected cells; HEK293T for immunocytochemistry
Nature of the assay: Block of Piezo1-induced MA currents in Piezo1-expressing cells (whole-cell). The format is cell-based. Particulars: for Percent block of Piezo1-induced MA current: 30 μM. Here is the method: (§2) Patch-clamp experiments were performed in standard whole-cell or cell attached recordings using an Axopatch 200B amplifier (Axon Instruments). Patch pipettes had resistance of 2-3 MΩ when filled with an internal solution consisting of (in mM) 133 CsCl, 10 HEPES, 5 EGTA, 1 CaCl2, 1 MgCl2, 4 MgATP, and 0.4 Na2GTP (pH adjusted to 7.3 with CsOH). The extracellular solution consisted of (in mM) 127-130 NaCl, 3 KCl, 1 MgCl2, 10 HEPES, 2.5 CaCl2, 10 glucose (pH adjusted to 7.3 with NaOH). NMDG solution consisted of (in mM) 150 NMDG, 10 HEPES (pH 7.5). For ion selectivity experiments, internal solution consisted of (in mM) 150 CsCl, 10 Hepes (pH 7.3 with CsOH), monovalent external solutions consisted of (in mM) 150 NaCl or KCl, 10 HEPES (pH 7.3 with NaOH or KOH) and divalent external solutions consisted of (in mM) 100 CaCl2 or MgCl2, 10 HEPES (pH 7.3 with CsOH). For cell attached recordings, pipette were filled with a solution consisting of (in mM) 130 NaCl, 5 KCl, 10 HEPES, 1 CaCl2, 1 MgCl2, 10 TEA-C1 (pH 7.3 with NaOH) and external solution used to zero the membrane potential consisted of (in mM) 140 KCl, 10 HEPES, 1 MgCl2, 10 glucose (pH 7.3 with KOH). All experiments were done at room temperature. Currents were sampled at 20 kHz and filtered at 2 kHz. Voltages were not corrected for a liquid junction potential excepted for ion selectivity experiments were LJP were calculated using Clampex 10.1 software (Axon Instruments). Leak currents before mechanical stimulations were subtracted off-line from the current traces. 10 mM ruthenium red stock solution was prepared in DMSO; 100 mM gadolinium stock solution, in water.
(§3) For whole-cell recordings mechanical stimulation was achieved using a fire-polished glass pipette (tip diameter 3-4 μm) positioned at an angle of 80° to the cell being recorded. Downward movement of the probe toward the cell was driven by a Clampex controlled piezo-electric crystal microstage (E625 LVPZT Controller/Amplifier; Physik Instrumente). […] Inward MA currents were recorded at a holding potential of −80 mV. […]

The target of another assay is T2, Piezo2 (Mus musculus, UniProt Q8CD54).
T2 construct: expressed in transfected cells; host or cells: N2A (with Piezo1 siRNA) or HEK293T; A13: N2A
The assay is described as follows: Block of Piezo2-induced MA currents in Piezo2-expressing cells (whole-cell). The format is cell-based. Particulars: for Percent block of Piezo2-induced MA currents: 30 μM. As to the method:
as §2, §3

T1 sequence (E2JF22 whole entry): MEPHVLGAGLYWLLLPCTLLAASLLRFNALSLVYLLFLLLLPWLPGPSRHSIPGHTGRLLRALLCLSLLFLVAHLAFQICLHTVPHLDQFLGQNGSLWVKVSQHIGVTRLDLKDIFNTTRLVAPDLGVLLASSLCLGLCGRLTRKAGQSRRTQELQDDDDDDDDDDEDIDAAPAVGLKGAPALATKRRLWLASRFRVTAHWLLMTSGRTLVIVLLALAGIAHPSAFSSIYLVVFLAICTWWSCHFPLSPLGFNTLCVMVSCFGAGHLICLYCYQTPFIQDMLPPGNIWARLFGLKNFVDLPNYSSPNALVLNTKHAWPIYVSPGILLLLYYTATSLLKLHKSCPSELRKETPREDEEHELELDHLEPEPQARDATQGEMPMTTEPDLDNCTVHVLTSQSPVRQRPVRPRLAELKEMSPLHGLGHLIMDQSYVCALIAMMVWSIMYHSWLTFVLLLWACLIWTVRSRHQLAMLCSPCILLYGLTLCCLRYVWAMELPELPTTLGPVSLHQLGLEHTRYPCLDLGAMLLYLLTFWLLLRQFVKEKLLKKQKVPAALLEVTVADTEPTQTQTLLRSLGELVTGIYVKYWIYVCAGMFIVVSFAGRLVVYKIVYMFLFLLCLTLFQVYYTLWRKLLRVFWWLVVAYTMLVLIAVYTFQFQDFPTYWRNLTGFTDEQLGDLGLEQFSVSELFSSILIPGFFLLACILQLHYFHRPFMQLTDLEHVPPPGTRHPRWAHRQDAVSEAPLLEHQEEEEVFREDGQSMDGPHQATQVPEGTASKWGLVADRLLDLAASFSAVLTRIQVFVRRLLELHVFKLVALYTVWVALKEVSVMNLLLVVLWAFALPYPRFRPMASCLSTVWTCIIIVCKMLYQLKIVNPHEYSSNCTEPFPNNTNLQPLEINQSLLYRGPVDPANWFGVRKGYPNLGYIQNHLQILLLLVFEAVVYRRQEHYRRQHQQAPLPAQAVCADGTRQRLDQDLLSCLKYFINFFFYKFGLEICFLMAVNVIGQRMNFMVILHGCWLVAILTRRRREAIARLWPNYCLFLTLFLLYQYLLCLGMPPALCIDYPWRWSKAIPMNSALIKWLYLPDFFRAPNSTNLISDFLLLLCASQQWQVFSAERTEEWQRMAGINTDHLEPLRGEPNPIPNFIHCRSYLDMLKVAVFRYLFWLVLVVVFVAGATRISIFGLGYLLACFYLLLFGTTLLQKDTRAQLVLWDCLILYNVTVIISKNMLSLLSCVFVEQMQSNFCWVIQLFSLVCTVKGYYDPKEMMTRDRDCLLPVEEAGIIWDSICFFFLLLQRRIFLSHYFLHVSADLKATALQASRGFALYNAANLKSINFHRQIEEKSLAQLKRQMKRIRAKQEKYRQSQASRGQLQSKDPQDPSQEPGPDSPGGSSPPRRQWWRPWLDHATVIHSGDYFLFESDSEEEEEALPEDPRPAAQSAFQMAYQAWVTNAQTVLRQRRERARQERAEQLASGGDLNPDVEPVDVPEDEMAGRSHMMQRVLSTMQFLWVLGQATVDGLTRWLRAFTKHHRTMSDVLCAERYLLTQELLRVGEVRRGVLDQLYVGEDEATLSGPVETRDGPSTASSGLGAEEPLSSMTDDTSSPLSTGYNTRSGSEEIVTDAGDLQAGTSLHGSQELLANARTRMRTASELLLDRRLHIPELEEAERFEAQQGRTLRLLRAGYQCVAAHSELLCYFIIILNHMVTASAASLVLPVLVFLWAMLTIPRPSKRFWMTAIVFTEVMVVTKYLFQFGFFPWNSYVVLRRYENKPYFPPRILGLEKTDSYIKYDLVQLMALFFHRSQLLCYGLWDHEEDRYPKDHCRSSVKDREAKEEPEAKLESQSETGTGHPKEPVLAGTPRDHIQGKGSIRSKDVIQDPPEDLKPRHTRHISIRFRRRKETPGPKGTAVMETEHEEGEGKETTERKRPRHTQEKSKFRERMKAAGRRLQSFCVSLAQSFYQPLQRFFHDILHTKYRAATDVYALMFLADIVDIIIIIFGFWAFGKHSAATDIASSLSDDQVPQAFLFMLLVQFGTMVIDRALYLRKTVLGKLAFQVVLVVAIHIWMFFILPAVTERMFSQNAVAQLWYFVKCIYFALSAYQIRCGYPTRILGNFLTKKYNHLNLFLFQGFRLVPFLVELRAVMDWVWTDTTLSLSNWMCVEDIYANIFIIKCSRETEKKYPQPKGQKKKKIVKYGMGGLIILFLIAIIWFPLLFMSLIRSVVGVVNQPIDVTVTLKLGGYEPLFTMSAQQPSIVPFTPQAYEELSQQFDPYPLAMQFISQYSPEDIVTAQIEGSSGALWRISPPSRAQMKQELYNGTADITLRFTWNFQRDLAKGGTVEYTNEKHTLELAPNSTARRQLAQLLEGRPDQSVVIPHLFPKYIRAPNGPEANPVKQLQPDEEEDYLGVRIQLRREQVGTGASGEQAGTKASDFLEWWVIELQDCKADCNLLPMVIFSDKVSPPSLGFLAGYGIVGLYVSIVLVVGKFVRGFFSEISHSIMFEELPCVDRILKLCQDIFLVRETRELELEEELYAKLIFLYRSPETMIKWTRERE

For `O=C(O)CN(CCOCCOCCN(CC(=O)O)CC(=O)O)CC(=O)O` [EGTA], the “Effect on MA currents” value in the assay with N2A cells (extracellular perfusion of divalent-free 5 mM EGTA solution for 30-60 min) was “did not suppress”.

Turning to `CNC[C@H](O)[C@@H](O)[C@H](O)[C@H](O)CO` [NMDG], the “Effect on inward endogenous MA currents” value in the assay with N2A cells (NMDG-chloride external solution, data not shown) is recorded as “suppressed”; in the assay with C2C12 cells, “suppressed”. For the same compound, the “Effect on inward Piezo1-induced MA currents” value on Piezo1 (NMDG substituted in extracellular bathing solution (150 mM NMDG-Cl)) is given as “suppressed”. The “Effect on Piezo2-induced currents” value on Piezo2 (perfusion with NMDG-Cl solution) is given as “suppressed”.

For the compound `[Gd]` [gadolinium], at Piezo1, the “Percent block of Piezo1-induced MA current” value was determined as 84.3±3.8%. In addition, on Piezo2, the “Percent block of Piezo2-induced MA currents” value was determined as 85.0±3.7%.

For the compound `N.N.N.N.N.N.N.N.N.N.N.N.N.N.[Cl-].[Cl-].[Cl-].[Cl-].[Cl-].[Cl-].[O-2].[O-2].[Ru+3].[Ru+3].[Ru+4]` [ruthenium red], the “Percent block of Piezo1-induced MA current” value at Piezo1 came to 74.6±2.5%. Moreover, the “Percent block of Piezo2-induced MA currents” value on Piezo2 is 79.2±4.2%.
